Holding throughout (format): functional, cell-based
For one assay, the system named is NCI-H460. Briefly: Growth inhibition of human NCI-H460 cells by MTT assay. (Tetrazolium dyes change colour on reduction, which living cells bring about.)
In the next assay the test system is SF-268. The experiment in a line: Growth inhibition of human SF268 cells by MTT assay.
A further assay deals with MCF7. Briefly: Growth inhibition of human MCF7 cells by MTT assay.

The values that follow come from ChEMBL document CHEMBL1149807, “Synthesis and anticancer activity of new class of bisphosphonates/phosphanamidates” (Eur J Med Chem, 2008).

By IC50 is commonly meant the concentration that gives 50% inhibition. Regarding `O=P1(C(c2ccc(Cl)cc2)P2(=O)Oc3ccccc3CN2c2ccc(F)c(Cl)c2)Oc2ccccc2CN1c1ccc(F)c(Cl)c1` (stereo unspecified), the results for the 50% inhibitory concentration (IC50) in the assay on NCI-H460, with SF-268 and in the assay with MCF7 were 10.9 µM, 11.2 µM and 14.3 µM, respectively.
Consider `C/C=C/C(P1(=O)Oc2ccccc2CN1c1ccc(F)c(Cl)c1)P1(=O)Oc2ccccc2CN1c1ccc(F)c(Cl)c1` (stereo unspecified), for which the half-inhibitory concentration (IC50) in the assay with NCI-H460 came out at 8.22 µM; in the assay on SF-268 it was 8.5 µM; in the assay on MCF7 it was 11.3 µM.
Turning to `O=P1(C(/C=C/c2ccccc2)P2(=O)Oc3ccccc3CN2c2ccc(F)c(Cl)c2)Oc2ccccc2CN1c1ccc(F)c(Cl)c1` (stereo unspecified), the IC50 came to 11.8 µM in the assay on NCI-H460, 11.6 µM with SF-268 and 13.1 µM in the assay on MCF7.
As for `Cc1ccc(C(P2(=O)OCC(C)(C)CO2)P2(=O)OCC(C)(C)CO2)cc1`, the IC50 with NCI-H460, in the assay with SF-268 and in the assay on MCF7 was more than 1000 µM throughout.
Regarding `Cc1ccc(C(P2(=O)Oc3ccccc3CN2c2ccc(F)c(Cl)c2)P2(=O)Oc3ccccc3CN2c2ccc(F)c(Cl)c2)cc1` (stereo unspecified), the half-inhibitory concentration (IC50) with NCI-H460 worked out at 9 µM; in the assay with SF-268 it was 7.69 µM; in the assay on MCF7, 12.7 µM.
The like results for `O=P1(C(c2ccccc2)P2(=O)Oc3ccccc3CN2c2ccc(F)c(Cl)c2)Oc2ccccc2CN1c1ccc(F)c(Cl)c1` (stereo unspecified) were, in that order, 3.77 µM, 2.8 µM and 4.05 µM.
The matching figures for `C/C=C/C(P1(=O)OCC(C)(C)CO1)P1(=O)OCC(C)(C)CO1`: more than 1000 µM, more than 1000 µM and more than 1000 µM.
Take `CC1(C)COP(=O)(C(c2ccccc2)P2(=O)OCC(C)(C)CO2)OC1`: the IC50 with NCI-H460, in the assay on SF-268 and in the assay with MCF7 was more than 1000 µM throughout.
For `CC1(C)COP(=O)(C(c2ccc(Cl)cc2)P2(=O)OCC(C)(C)CO2)OC1`, the IC50 with NCI-H460, in the assay on SF-268 and with MCF7 was more than 1000 µM each time.
With `CC1(C)COP(=O)(C(c2cccc([N+](=O)[O-])c2)P2(=O)OCC(C)(C)CO2)OC1`, the IC50 with NCI-H460, in the assay with SF-268 and in the assay with MCF7 was more than 1000 µM in each case.
Take `CCN(CC)c1ccc(C(P2(=O)OCC(C)(C)CO2)P2(=O)OCC(C)(C)CO2)cc1`: the half-inhibitory concentration (IC50) in the assay on NCI-H460, with SF-268 and with MCF7 was more than 1000 µM each time.
For `CC1(C)COP(=O)(C(c2ccncc2)P2(=O)OCC(C)(C)CO2)OC1`, the half-maximal inhibitory concentration (IC50) in the assay with NCI-H460, in the assay with SF-268 and in the assay with MCF7 was more than 1000 µM in each case.
Consider `NP(=O)(O)C(c1ccc(Cl)cc1)P(N)(=O)O` (stereo unspecified), for which the IC50 with NCI-H460 stood at 75.2 µM; in the assay on SF-268, 90.4 µM; in the assay with MCF7 it was 71.3 µM.
The matching figures for `CCN(CC)c1ccc(C(P2(=O)Oc3ccccc3CN2c2ccc(F)c(Cl)c2)P2(=O)Oc3ccccc3CN2c2ccc(F)c(Cl)c2)cc1` (stereo unspecified): 5.69 µM, 3.85 µM and 5.71 µM.
The like results for `O=[N+]([O-])c1cccc(C(P2(=O)Oc3ccccc3CN2c2ccc(F)c(Cl)c2)P2(=O)Oc3ccccc3CN2c2ccc(F)c(Cl)c2)c1` (stereo unspecified) were, in that order, 13 µM, 10.7 µM and 17.6 µM.
Turning to `O=P1(C(c2ccncc2)P2(=O)Oc3ccccc3CN2c2ccc(F)c(Cl)c2)Oc2ccccc2CN1c1ccc(F)c(Cl)c1` (stereo unspecified), the IC50 with NCI-H460 is 12.3 µM; in the assay with SF-268 it was 11.7 µM; in the assay with MCF7, 11.5 µM.
The like results for `CC1(C)COP(=O)(C(/C=C/c2ccccc2)P2(=O)OCC(C)(C)CO2)OC1` were, in that order, more than 1000 µM, more than 1000 µM and more than 1000 µM.
